We go through 26 compounds from ChEMBL document CHEMBL4265946, “Activity of oxygen-versus sulfur-containing analogs of the Flex-Het anticancer agent SHetA2” (Eur J Med Chem, 2018).

The subject of data set [1] is A2780. The data set is described as follows: Growth inhibition of human A2780 cells after 72 hrs by CellTiter-96 assay. Type of data set: functional, cell-based. The following applies: A2780, 72 h.
Data set [2] relates to A2780. Put plainly: Growth inhibition of human A2780 cells at 10 uM after 72 hrs by CellTiter-96 assay relative to control. Type of data set: functional. The following applies: A2780, 72 h, read-out: GI.
Data set [3] can be described thus: Toxicity in dog. It is filed as organism-based, Canis lupus familiaris. As to conditions: in vivo.
Data set [4] can be described thus: Toxicity in rat. Type of data set: organism-based. The following applies: in vivo.

The term IC50 denotes the concentration that gives 50% inhibition. In turn, `CC1(C)CCOc2ccc(NC(=S)Nc3ccc(C(F)(F)F)cc3)cc21` displayed an IC50 in the data set with A2780 [1] of 5.5 µM. Moreover, in the data set with A2780 [2], the inhibition of growth at 10 µM was found to be 28%.

Usually NOAEL stands for the highest dose or exposure tested at which no adverse effect was seen. For the compound `CC1(C)CC(C)(C)c2cc(NC(=S)Nc3ccc([N+](=O)[O-])cc3)ccc2S1` [SHETA-2], the NOAEL in data set [3] is over 1500 mg/kg/day; in data set [4], 500 mg/kg/day. The 50% inhibitory concentration (IC50) with A2780 [1] is 3.17 µM. In addition, in the data set with A2780 [2], the inhibition of growth at 10 µM came to 84.3%.

Take `CCC1(CC)CC(C)(C)Oc2ccc(NC(=O)Nc3ccc([N+](=O)[O-])cc3)cc21`: the IC50 with A2780 [1] amounted to 2.05 µM. In the data set on A2780 [2], the inhibition of growth at 10 µM worked out at 93.7%.

In the case of `CC1(C)CCOc2ccc(NC(=S)Nc3ccc([N+](=O)[O-])cc3)cc21`, the IC50 with A2780 [1] turned out to be 6.4 µM. Moreover, in the data set on A2780 [2], the inhibition of growth at 10 µM stood at 19%.

`CCC1(CC)CC(CC)(CC)c2cc(NC(=S)Nc3ccc([N+](=O)[O-])cc3)ccc2O1` returned a half-inhibitory concentration (IC50) in the data set on A2780 [1] of 4.6 µM. For the same compound, the inhibition of growth at 10 µM with A2780 [2] was 94%.

`CC1(C)CC(C)(C)c2cc(NC(=O)Nc3ccc([N+](=O)[O-])cc3)ccc2O1` displayed a 50% inhibitory concentration (IC50) in the data set with A2780 [1] of 4.1 µM. For the same compound, in the data set with A2780 [2], the inhibition of growth at 10 µM turned out to be 79%.

With `CCC1(CC)CC(C)(C)c2cc(NC(=O)Nc3ccc([N+](=O)[O-])cc3)ccc2O1`, in the data set with A2780 [1], it took 2.17 µM to reach half-maximal inhibition (IC50). The inhibition of growth at 10 µM in the data set on A2780 [2] worked out at 93.2%.

Regarding `CCC1(CC)CC(C)(C)c2cc(NC(=O)Nc3ccc(C(F)(F)F)cc3)ccc2O1`, in the data set with A2780 [1], the IC50 came to 2.45 µM. Further, the inhibition of growth at 10 µM in the data set with A2780 [2] is 92.4%.

`CC1(C)CC(C)(C)c2cc(NC(=O)Nc3ccc(OC(F)(F)F)cc3)ccc2O1`: in the data set on A2780 [1], inhibition was half-maximal at 4.56 µM (IC50). The inhibition of growth at 10 µM in the data set with A2780 [2] came out at 91.5%.

As to `CC1(C)CCOc2ccc(NC(=S)Nc3ccc(OC(F)(F)F)cc3)cc21`, the IC50 in the data set with A2780 [1] amounted to 4.3 µM. Further, the inhibition of growth at 10 µM in the data set on A2780 [2] is 16%.

In the data set on A2780 [1], `CC1(C)CCOc2ccc(NC(=O)Nc3ccc([N+](=O)[O-])cc3)cc21` showed a half-inhibitory concentration (IC50) of 6.7 µM. Moreover, the inhibition of growth at 10 µM with A2780 [2] is 74%.

Take `CCOC(=O)c1ccc(N/C(S)=N/c2ccc3c(c2)C(C)(C)CC(C)(C)O3)cc1`: the midpoint of inhibition in the data set with A2780 [1], the IC50, lay at 4.3 µM. In addition, in the data set on A2780 [2], the inhibition of growth at 10 µM was found to be 26%.

As for `CCC1(CC)CC(C)(C)Oc2ccc(NC(=S)Nc3ccc([N+](=O)[O-])cc3)cc21`, the IC50 with A2780 [1] was determined as 3.69 µM. Also, the inhibition of growth at 10 µM with A2780 [2] was 95.7%.

Compound `CCC1(CC)CC(C)(C)Oc2ccc(NC(=S)Nc3ccc(C(F)(F)F)cc3)cc21` came in with an IC50 with A2780 [1] of 4.7 µM. The inhibition of growth at 10 µM with A2780 [2] came out at 11.8%.

Regarding `CCC1(CC)CC(C)(C)c2cc(NC(=S)Nc3ccc([N+](=O)[O-])cc3)ccc2O1`, 2.9 µM corresponded to half-maximal inhibition in the data set with A2780 [1] (IC50). In addition, the inhibition of growth at 10 µM in the data set on A2780 [2] was found to be 93.9%.

As to `CC1(C)CC(C)(C)c2cc(NC(=O)Nc3ccc(C(F)(F)F)cc3)ccc2O1`, the midpoint of inhibition with A2780 [1], the IC50, lay at 3.6 µM. Further, the inhibition of growth at 10 µM in the data set with A2780 [2] was 88.4%.

Turning to `CC1(C)CC(C)(C)c2cc(NC(=S)Nc3ccc(C(F)(F)F)cc3)ccc2O1`, half-maximal inhibition in the data set on A2780 [1] (IC50) was put at 43.7 µM. Further, the inhibition of growth at 10 µM in the data set with A2780 [2] stood at 2%.

`CC1(C)CC(C)(C)c2cc(N/C(S)=N/c3ccc([N+](=O)[O-])cc3)ccc2O1` had an IC50 with A2780 [1] of 6.96 µM. In the data set with A2780 [2], the inhibition of growth at 10 µM stood at 87%.

In the data set on A2780 [1], `CC1(C)CCOc2ccc(NC(=O)Nc3ccc(C(F)(F)F)cc3)cc21` came in with an IC50 of 5 µM. Besides, in the data set with A2780 [2], the inhibition of growth at 10 µM worked out at 47%.

With `CC1(C)CCOc2ccc(NC(=O)Nc3ccc(OC(F)(F)F)cc3)cc21`, the midpoint of inhibition in the data set with A2780 [1], the IC50, lay at 3.5 µM. Also, the inhibition of growth at 10 µM in the data set on A2780 [2] came out at 36%.

For `CCC1(CC)CC(CC)(CC)c2cc(NC(=O)Nc3ccc([N+](=O)[O-])cc3)ccc2O1`, the IC50 in the data set with A2780 [1] is 2.09 µM. In the data set with A2780 [2], the inhibition of growth at 10 µM is 91.4%.

As for `CCC1(CC)CC(CC)(CC)c2cc(NC(=O)Nc3ccc(OC(F)(F)F)cc3)ccc2O1`, it took 3 µM to reach half-maximal inhibition in the data set with A2780 [1] (IC50). Besides, the inhibition of growth at 10 µM in the data set on A2780 [2] was determined as 67%.

In the case of `CCC1(CC)CC(C)(C)Oc2ccc(NC(=O)Nc3ccc(C(F)(F)F)cc3)cc21`, the IC50 in the data set with A2780 [1] turned out to be 2.43 µM. In the data set with A2780 [2], the inhibition of growth at 10 µM amounted to 93.3%.

As for `CCC1(CC)CC(CC)(CC)c2cc(NC(=O)Nc3ccc(C(F)(F)F)cc3)ccc2O1`, in the data set on A2780 [1], 2 µM corresponded to half-maximal inhibition (IC50). Moreover, in the data set on A2780 [2], the inhibition of growth at 10 µM came out at 86.2%.

For `CC1(C)CC(C)(C)c2cc(NC(=S)Nc3ccc(S(N)(=O)=O)cc3)ccc2O1`, inhibition with A2780 [1] was half-maximal at 6.9 µM (IC50). Besides, the inhibition of growth at 10 µM with A2780 [2] came to 32%.

In the data set with A2780 [1], `CC1(C)CC(C)(C)c2cc(NC(=O)Nc3ccc(C#N)cc3)ccc2O1` came in with an IC50 of 4.7 µM. The inhibition of growth at 10 µM in the data set with A2780 [2] turned out to be 93%.
